The target of one test is T1, LRRK2 G2019S (Homo sapiens, UniProt Q5S007, G2019S).
T1 construct: purchased Life Technologies PV4881
The test can be described thus: LRRK2 Kinase Activity Assay (LanthaScreen TR-FRET), G2019S. Particulars: recombinant G2019S-LRRK2, 25 μM ATP, 400 nM LRRKtide, 60 min; class symbols. In kind it is biochemical. The gist of the method:
(§1)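 Recombinant wild-type or G2019S LRRK2 incubated with fluorescein-labeled LRRKtide (ERM-based) peptide, ATP and serially diluted compound for 60 min at room temperature.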

For a further test, the target named is T2, LRRK2 WT (Homo sapiens, UniProt Q5S007).
T2 construct: purchased Life Technologies PR8604B
The test can be described thus: LRRK2 Kinase Activity Assay (LanthaScreen TR-FRET), wild type. Particulars: recombinant wild type LRRK2, 25 μM ATP, 400 nM LRRKtide, 60 min. It is filed as biochemical. The method, boiled down:
as §1
For orientation: Time-resolved FRET reads energy transfer from a long-lived donor to a nearby acceptor.

The structures appear in SMILES notation.

Our source for the IC50 values is patent US20230148214A1, “INDAZOLES AND AZAINDAZOLES AS LRRK2 INHIBITORS” (ESCAPE Bio, Inc., priority 2020, published 2023).

T1 sequence (Q5S007 whole entry G2019S): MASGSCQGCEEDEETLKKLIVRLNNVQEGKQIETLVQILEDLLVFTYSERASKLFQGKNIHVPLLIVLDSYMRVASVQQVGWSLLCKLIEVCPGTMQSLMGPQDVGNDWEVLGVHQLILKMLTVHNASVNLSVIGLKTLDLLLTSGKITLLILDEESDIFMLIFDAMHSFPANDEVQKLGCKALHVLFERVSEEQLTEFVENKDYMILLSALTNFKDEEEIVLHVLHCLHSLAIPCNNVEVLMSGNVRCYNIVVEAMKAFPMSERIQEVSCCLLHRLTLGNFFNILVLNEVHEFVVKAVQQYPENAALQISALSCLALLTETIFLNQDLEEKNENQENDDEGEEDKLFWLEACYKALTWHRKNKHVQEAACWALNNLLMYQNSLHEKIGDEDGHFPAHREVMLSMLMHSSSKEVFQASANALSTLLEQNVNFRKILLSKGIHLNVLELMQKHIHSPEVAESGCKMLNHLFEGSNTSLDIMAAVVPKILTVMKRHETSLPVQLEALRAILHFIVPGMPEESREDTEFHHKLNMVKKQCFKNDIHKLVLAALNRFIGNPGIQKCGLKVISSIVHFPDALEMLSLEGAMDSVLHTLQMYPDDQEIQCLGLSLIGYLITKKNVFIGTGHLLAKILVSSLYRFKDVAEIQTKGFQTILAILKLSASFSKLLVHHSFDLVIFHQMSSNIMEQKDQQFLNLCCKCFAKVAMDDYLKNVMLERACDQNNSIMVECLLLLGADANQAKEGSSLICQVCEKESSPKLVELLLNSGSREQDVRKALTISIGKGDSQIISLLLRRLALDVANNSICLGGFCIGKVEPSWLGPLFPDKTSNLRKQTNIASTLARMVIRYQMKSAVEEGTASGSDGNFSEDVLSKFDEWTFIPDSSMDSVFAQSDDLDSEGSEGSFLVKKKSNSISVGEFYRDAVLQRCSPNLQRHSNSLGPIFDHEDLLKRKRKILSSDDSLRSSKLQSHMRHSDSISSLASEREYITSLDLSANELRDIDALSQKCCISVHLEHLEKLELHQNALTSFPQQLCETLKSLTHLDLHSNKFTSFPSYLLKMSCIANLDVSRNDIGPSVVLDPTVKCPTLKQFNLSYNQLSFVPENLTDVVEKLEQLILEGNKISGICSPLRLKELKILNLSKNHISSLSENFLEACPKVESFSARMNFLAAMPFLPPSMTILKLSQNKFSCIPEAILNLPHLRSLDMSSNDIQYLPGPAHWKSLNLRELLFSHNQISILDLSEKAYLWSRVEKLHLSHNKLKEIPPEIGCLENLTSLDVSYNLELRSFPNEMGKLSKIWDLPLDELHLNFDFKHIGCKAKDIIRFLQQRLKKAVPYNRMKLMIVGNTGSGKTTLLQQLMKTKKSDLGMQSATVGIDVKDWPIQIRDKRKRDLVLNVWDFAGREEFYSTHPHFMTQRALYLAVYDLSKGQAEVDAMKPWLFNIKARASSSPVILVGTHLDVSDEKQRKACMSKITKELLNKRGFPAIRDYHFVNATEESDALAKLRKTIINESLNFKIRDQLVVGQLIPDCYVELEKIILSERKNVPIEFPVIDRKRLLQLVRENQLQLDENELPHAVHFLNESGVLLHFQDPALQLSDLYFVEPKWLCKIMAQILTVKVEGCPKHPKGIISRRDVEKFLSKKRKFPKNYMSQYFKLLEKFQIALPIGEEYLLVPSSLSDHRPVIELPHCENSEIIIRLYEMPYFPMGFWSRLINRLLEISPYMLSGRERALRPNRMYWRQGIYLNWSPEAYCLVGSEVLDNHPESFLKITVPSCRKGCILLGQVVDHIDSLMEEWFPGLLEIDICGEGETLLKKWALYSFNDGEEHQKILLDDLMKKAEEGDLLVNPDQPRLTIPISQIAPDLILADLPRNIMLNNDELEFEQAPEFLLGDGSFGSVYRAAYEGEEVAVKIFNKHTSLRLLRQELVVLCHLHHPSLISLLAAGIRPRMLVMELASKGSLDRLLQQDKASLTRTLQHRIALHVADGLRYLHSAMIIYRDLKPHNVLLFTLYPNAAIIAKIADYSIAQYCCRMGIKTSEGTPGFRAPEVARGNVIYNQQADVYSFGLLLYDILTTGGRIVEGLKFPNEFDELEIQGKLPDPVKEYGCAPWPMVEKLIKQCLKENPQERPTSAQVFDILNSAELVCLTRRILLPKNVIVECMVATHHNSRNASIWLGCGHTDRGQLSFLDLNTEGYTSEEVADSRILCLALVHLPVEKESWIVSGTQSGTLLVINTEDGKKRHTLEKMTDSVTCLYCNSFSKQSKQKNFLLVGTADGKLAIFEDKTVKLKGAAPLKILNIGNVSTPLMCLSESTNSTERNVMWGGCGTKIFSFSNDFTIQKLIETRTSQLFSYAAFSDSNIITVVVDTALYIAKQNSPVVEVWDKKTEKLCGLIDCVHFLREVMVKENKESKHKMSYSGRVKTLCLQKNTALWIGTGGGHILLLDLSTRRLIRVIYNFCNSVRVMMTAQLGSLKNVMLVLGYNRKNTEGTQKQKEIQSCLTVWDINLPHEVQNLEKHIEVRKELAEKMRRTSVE
T2 sequence (Q5S007 whole entry): as the sequence (Q5S007 whole entry G2019S) above, with S2019G counted along it

One may read the IC50 as the point on the concentration scale where inhibition reaches its midpoint. `N#Cc1ccc2c(c1)CCC[C@@H]2Nc1cc2c(-c3cnco3)n[nH]c2cn1` (single isomer, unassigned) [Example 33, enantiomer 2, 5-((3-(Oxazol-5-yl)-1H-pyrazolo[3,4-c]pyridin-5-yl)amino)-5,6,7,8-tetrahydronaphthalene-2-carbonitrile]: the IC50 at LRRK2 G2019S and at LRRK2 WT (class symbols) was 100 to 1000 nM each time.
As to `N#Cc1nc2c(o1)CCC[C@@H]2Nc1ccc2[nH]nc(-c3cnco3)c2c1` (single isomer, unassigned) [Example 35, enantiomer 1, 4-((3-(Oxazol-5-yl)-1H-indazol-5-yl)amino)-4,5,6,7-tetrahydrobenzo[d]oxazole-2-carbonitrile], the IC50 on LRRK2 G2019S and at LRRK2 WT (class symbols) was less than 100 nM each time.
Consider `N#Cc1nc2c(o1)CCC[C@@H]2Nc1ccc2[nH]nc(-c3cnco3)c2c1` (single isomer, unassigned) [Example 35, enantiomer 2, 4-((3-(Oxazol-5-yl)-1H-indazol-5-yl)amino)-4,5,6,7-tetrahydrobenzo[d]oxazole-2-carbonitrile], for which the IC50 at LRRK2 G2019S and on LRRK2 WT (class symbols) was 100 to 1000 nM each time.
With `N#Cc1nc2c(o1)CCC2Nc1ccc2[nH]nc(-c3cnco3)c2c1` (single isomer, unassigned) [Example 36, enantiomer 1, 4-((3-(Oxazol-5-yl)-1H-indazol-5-yl)amino)-5,6-dihydro-4H-cyclopenta[d]oxazole-2-carbonitrile], the IC50 on LRRK2 G2019S lay within 100 to 1000 nM; at LRRK2 WT (class symbols), 1000 to 10000 nM.
For `N#Cc1nc2c(o1)CCC2Nc1ccc2[nH]nc(-c3cnco3)c2c1` (single isomer, unassigned) [Example 36, enantiomer 2, 4-((3-(Oxazol-5-yl)-1H-indazol-5-yl)amino)-5,6-dihydro-4H-cyclopenta[d]oxazole-2-carbonitrile], in that order: less than 100 nM and less than 100 nM.
For `N#Cc1cccc2c1[C@@H](Oc1ccc3[nH]nc(-c4cnco4)c3c1)CC2` (single isomer, unassigned) [Example 37, enantiomer 1, 3-((3-(Oxazol-5-yl)-1H-indazol-5-yl)oxy)-2,3-dihydro-1H-indene-4-carbonitrile], the IC50 at LRRK2 G2019S and on LRRK2 WT (class symbols) was less than 100 nM each time.
For `N#Cc1ccc2c(c1)CCC[C@@H]2Oc1ccc2[nH]nc(-c3ccnc(N4CCOCC4)c3)c2c1` (single isomer, unassigned) [Example 39, enantiomer 1, 5-((3-(2-Morpholinopyridin-4-yl)-1H-indazol-5-yl)oxy)-5,6,7,8-tetrahydronaphthalene-2-carbonitrile], the IC50 on LRRK2 G2019S and at LRRK2 WT (class symbols) was less than 100 nM in each case.
On to `COc1cc(-c2n[nH]c3ccc(N[C@H]4CCc5cc(C#N)ccc54)cc23)ccn1` (single isomer, unassigned) [Example 40, enantiomer 1, 1-((3-(2-Methoxypyridin-4-yl)-1H-indazol-5-yl)amino)-2,3-dihydro-1H-indene-5-carbonitrile], for which the IC50 at LRRK2 G2019S is less than 100 nM; at LRRK2 WT (class symbols), 100 to 1000 nM.
As to `N#Cc1cc2c(nn1)[C@@H](Oc1ccc3[nH]nc(-c4cnco4)c3c1)CC2` (single isomer, unassigned) [Example 41, enantiomer 1, 7-((3-(Oxazol-5-yl)-1H-indazol-5-yl)oxy)-6,7-dihydro-5H-cyclopenta[c]pyridazine-3-carbonitrile], the IC50 at LRRK2 G2019S and on LRRK2 WT (class symbols) was less than 100 nM in each case.
As for `N#Cc1ccc2c(c1)CC(F)(F)[C@@H]2Nc1ccc2[nH]nc(-c3cnco3)c2c1` (single isomer, unassigned) [Example 42, enantiomer 1, 2,2-Difluoro-1-((3-(oxazol-5-yl)-1H-indazol-5-yl)amino)-2,3-dihydro-1H-indene-5-carbonitrile], the IC50 on LRRK2 G2019S and at LRRK2 WT (class symbols) was less than 100 nM in each case.
`Cc1n[nH]c2ccc(N[C@H]3CCCc4cc(C#N)ccc43)cc12` (single isomer, unassigned) [Example 43, enantiomer 1, 5-((3-Methyl-1H-indazol-5-yl)amino)-5,6,7,8-tetrahydronaphthalene-2-carbonitrile]: the IC50 at LRRK2 G2019S was less than 100 nM; on LRRK2 WT (class symbols) it was 100 to 1000 nM.
For `Cc1n[nH]c2ccc(N[C@H]3CCCc4cc(C#N)ccc43)cc12` (single isomer, unassigned) [Example 43, enantiomer 2, 5-((3-Methyl-1H-indazol-5-yl)amino)-5,6,7,8-tetrahydronaphthalene-2-carbonitrile], in that order: 100 to 1000 nM and 1000 to 10000 nM.
For `N#Cc1ccc2c(c1)CCC[C@@H]2Nc1ccc2[nH]nc(-c3cncs3)c2c1` (single isomer, unassigned) [Example 44, 5-((3-(Thiazol-5-yl)-1H-indazol-5-yl)amino)-5,6,7,8-tetrahydronaphthalene-2-carbonitrile], in that order: less than 100 nM and less than 100 nM.
Turning to `N#Cc1ccc2c(c1)CCC[C@@H]2Nc1ccc2[nH]nc(C3CCCCC3)c2c1` (single isomer, unassigned) [Example 45, 5-((3-Cyclohexyl-1H-indazol-5-yl)amino)-5,6,7,8-tetrahydronaphthalene-2-carbonitrile], the IC50 on LRRK2 G2019S was 1000 to 10000 nM; on LRRK2 WT (numeric bound) it was greater than 10000 nM.
On the same counts, the results for `Cn1cccc(-c2n[nH]c3ccc(N[C@H]4CCCc5cc(C#N)ccc54)cc23)c1=O` (single isomer, unassigned) [Example 46, 5-((3-(1-Methyl-2-oxo-1,2-dihydropyridin-3-yl)-1H-indazol-5-yl)amino)-5,6,7,8-tetrahydronaphthalene-2-carbonitrile] are 100 to 1000 nM and greater than 10000 nM.
For the compound `N#Cc1nc2c(s1)[C@@H](Nc1ccc3[nH]nc(-c4cnco4)c3c1)CCC2` (single isomer, unassigned) [Example 47, enantiomer 1, 7-((3-(Oxazol-5-yl)-1H-indazol-5-yl)amino)-4,5,6,7-tetrahydrobenzo[d]thiazole-2-carbonitrile], the IC50 at LRRK2 G2019S and at LRRK2 WT (class symbols) was 100 to 1000 nM in each case.
Turning to `N#Cc1nc2c(s1)[C@@H](Nc1ccc3[nH]nc(-c4cnco4)c3c1)CCC2` (single isomer, unassigned) [Example 47, enantiomer 2, 7-((3-(Oxazol-5-yl)-1H-indazol-5-yl)amino)-4,5,6,7-tetrahydrobenzo[d]thiazole-2-carbonitrile], the IC50 on LRRK2 G2019S and on LRRK2 WT (class symbols) was less than 100 nM each time.
With `N#Cc1cnc2c(c1)C1CC1[C@@H]2Nc1ccc2[nH]nc(-c3cnco3)c2c1` (single isomer, unassigned) [Example 48, enantiomer 1, 6-((3-(Oxazol-5-yl)-1H-indazol-5-yl)amino)-4b,5,5a,6-tetrahydrocyclopropa[3,4]cyclopenta[1,2-b]pyridine-3-carbonitrile], the IC50 at LRRK2 G2019S and at LRRK2 WT (class symbols) was less than 100 nM each time.
Regarding `N#Cc1cnc2c(c1)CCC[C@@H]2Nc1ccc2[nH]nc(-c3cnn(C(F)F)c3)c2c1` (single isomer, unassigned) [Example 49, enantiomer 1, 8-((3-(1-(Difluoromethyl)-1H-pyrazol-4-yl)-1H-indazol-5-yl)amino)-5,6,7,8-tetrahydroquinoline-3-carbonitrile], the IC50 at LRRK2 G2019S and at LRRK2 WT (class symbols) was less than 100 nM in each case.
For the compound `N#Cc1cnc2c(c1)CCC[C@@H]2Nc1ccc2[nH]nc(-c3cnn(C(F)F)c3)c2c1` (single isomer, unassigned) [Example 49, enantiomer 2, 8-((3-(1-(Difluoromethyl)-1H-pyrazol-4-yl)-1H-indazol-5-yl)amino)-5,6,7,8-tetrahydroquinoline-3-carbonitrile], the IC50 on LRRK2 G2019S was less than 100 nM; at LRRK2 WT (class symbols), 100 to 1000 nM.
For `Cc1c(C#N)ccc2c1CC[C@@H]2Oc1ccc2[nH]nc(-c3cnn(C(F)F)c3)c2c1` (single isomer, unassigned) [Example 50, enantiomer 1, 1-((3-(1-(Difluoromethyl)-1H-pyrazol-4-yl)-1H-indazol-5-yl)oxy)-4-methyl-2,3-dihydro-1H-indene-5-carbonitrile], in that order: less than 100 nM and less than 100 nM.
Turning to `Cc1c(C#N)ccc2c1CC[C@@H]2Oc1ccc2[nH]nc(-c3cnn(C(F)F)c3)c2c1` (single isomer, unassigned) [Example 50, enantiomer 2, 1-((3-(1-(Difluoromethyl)-1H-pyrazol-4-yl)-1H-indazol-5-yl)oxy)-4-methyl-2,3-dihydro-1H-indene-5-carbonitrile], the IC50 on LRRK2 G2019S was 100 to 1000 nM; on LRRK2 WT (class symbols) it was less than 100 nM.
As for `N#Cc1ccc2c(c1F)CC[C@@H]2Oc1ccc2[nH]nc(-c3cnn(C(F)F)c3)c2c1` (single isomer, unassigned) [Example 51, enantiomer 1, 1-((3-(1-(Difluoromethyl)-1H-pyrazol-4-yl)-1H-indazol-5-yl)oxy)-4-fluoro-2,3-dihydro-1H-indene-5-carbonitrile], the IC50 at LRRK2 G2019S and on LRRK2 WT (class symbols) was less than 100 nM throughout.
In the case of `Cc1c(C#N)ccc2c1CC[C@@H]2Nc1ccc2[nH]nc(-c3cnn(C(F)F)c3)c2c1` (single isomer, unassigned) [Example 52, enantiomer 1, 1-((3-(1-(Difluoromethyl)-1H-pyrazol-4-yl)-1H-indazol-5-yl)amino)-4-methyl-2,3-dihydro-1H-indene-5-carbonitrile], the IC50 on LRRK2 G2019S and on LRRK2 WT (class symbols) was less than 100 nM in each case.
Regarding `N#Cc1ccc2c(c1F)CC[C@H]2Nc1ccc2[nH]nc(-c3cnn(C(F)F)c3)c2c1` (single isomer, unassigned) [Example 53, enantiomer 1, 1-((3-(1-(Difluoromethyl)-1H-pyrazol-4-yl)-1H-indazol-5-yl)amino)-4-fluoro-2,3-dihydro-1H-indene-5-carbonitrile], the IC50 on LRRK2 G2019S and on LRRK2 WT (class symbols) was less than 100 nM each time.
